Reference: US6949536B2, “Sulfonylbenzene compounds as anti-inflammatory/analgesic agents” (Pfizer, Inc., priority 1998, dated 2005)
Structures can show the parent of a compound that is named as a salt.

| Compound | melting point [°C] |
| --- | --- |
| Cc1cn(-c2ccc(S(N)(=O)=O)c(F)c2)c(-c2ccc(-c3cscn3)cc2)n1 [Example 179, 2-Fluoro-4-[4-methyl-2-[4-(4-thiazolyl)phenyl]-1H-imidazol-1-yl]benzenesulfonamide] | 145 to 147 |
| Cc1cc(-c2noc(C)c2-c2ccc(S(N)(=O)=O)c(F)c2)ccc1-c1cscn1 [Example 188, 2-Fluoro-4-[5-methyl-3-[3-methyl-4-(1,3-thiazol-4-yl)phenyl]-4-isoxazolyl]benzenesulfonamide] | 114 to 116 |
| CCOc1cc(-n2nc(C(=O)O)cc2-c2ccc(-c3ccco3)cc2)ccc1S(C)(=O)=O [Example 127, 1-[3-Ethoxy-4-(methylsulfonyl)phenyl]-5-[4-(2-furyl)phenyl]-1H-pyrazole-3-carboxylic Acid] | 256 to 257 |
| Cc1nc(-c2ccc(-c3cc(C(F)(F)F)nn3-c3ccc(S(C)(=O)=O)c(F)c3)cc2)cs1 [Example 102, 4-{4-[1-[3-Fluoro-4-(methylsulfonyl)phenyl]-3-(trifluoromethyl)-1H-pyrazol-5-yl]phenyl}-2-methyl-1,3-thiazole] | 139 to 141 |
| CS(=O)(=O)c1ccc(-n2nc(C(F)(F)F)cc2-c2ccc(-c3ccoc3)cc2)cc1 [Example 20, 1-[4-(Methylsulfonyl)phenyl]-5-[4-(3-furyl)phenyl]-3-trifluoromethyl-1H-pyrazole] | 165 to 166 |
| NS(=O)(=O)c1ccc(-n2nc(C(F)(F)F)cc2-c2ccc(-c3cscn3)c(F)c2)cc1F (as salt: hydrochloride) [Example 114, 2-Fluoro-4-[5-[3-fluoro-4-(1,3-thiazol-4-yl)phenyl]-3-(trifluoromethyl)-1H-pyrazol-1-yl]benzenesulfonamide] | 196 to 198 |
| NS(=O)(=O)c1ccc(-n2nc(C(F)(F)F)cc2-c2ccc(-c3cscn3)c(Cl)c2)cc1F (as salt: hydrochloride) [Example 122, 2-Fluoro-4-[5-[3-chloro-4-(1,3-thiazol-4-yl)phenyl]-3-(trifluoromethyl)-1H-pyrazol-1-yl]benzenesulfonamide] | 173 to 175 |
| CS(=O)(=O)c1ccc(-n2nc(C(=O)O)cc2-c2ccc(-c3ccco3)cc2)cc1F [Example 128, 1-[3-Fluoro-4-(methylsulfonyl)phenyl]-5-[4-(2-furyl)phenyl]-1H-pyrazole-3-carboxylic Acid] | 171.5 to 173 |
| Cc1nc(-c2ccc(-c3cscn3)cc2)c(-c2ccc(S(C)(=O)=O)c(F)c2)o1 [Example 169, 5-[3-Fluoro-4-(methylsulfonyl)phenyl]-2-methyl-4-[4-(1,3-thiazol-4-yl)phenyl]-1,3-oxazole] | 196 to 197 |
| NS(=O)(=O)c1ccc(-n2nc(C(F)(F)F)cc2-c2ccc(-c3cocn3)cc2)cc1 (as salt: hydrochloride) [Example 118, 4-[5-[4-(1,3-Oxazol-4-yl)phenyl]-3-(trifluoromethyl)-1H-pyrazol-1-yl]benzenesulfonamide] | 170 to 172 |
| NS(=O)(=O)c1ccc(-n2nc(C(F)(F)F)cc2-c2ccc(-c3cscn3)cc2)cc1F (as salt: hydrochloride) [Example 103, 2-Fluoro-4-[5-[4-(1,3-thiazol-4-yl)phenyl]-3-(trifluoromethyl)-1H-pyrazol-1-yl]benzenesulfonamide] | 168 to 170 |
| CS(=O)(=O)c1ccc(-n2ncc(C#N)c2-c2ccc(-c3ccco3)cc2)cc1F [Example 163, 4-Cyano-1-[3-fluoro-4-(methylsulfonyl)phenyl]-5-[4-(2-furyl)phenyl]-1H-pyrazole] | 153 to 157 |
| CS(=O)(=O)c1ccc(-n2nc(C(F)(F)F)cc2-c2ccc(-c3ncco3)cc2)cc1F [Example 96, 2-{4-[1-[3-Fluoro-4-(methylsulfonyl)phenyl]-3-(trifluoromethyl)-1H-pyrazol-5-yl]phenyl}-1,3-oxazole] | 140 to 142 |
| CS(=O)(=O)c1ccc(-n2nc(C(F)(F)F)cc2-c2ccc(-c3ccco3)c(Cl)c2)cc1 (as salt: hydrochloride) [Example 71, 1-[4-(Methylsulfonyl)phenyl]-5-[3-chloro-4-(2-furyl)phenyl]-3-(trifluoromethyl)-1H-pyrazole] | 143 to 145 |
| CS(=O)(=O)c1ccc(-n2nc(C(F)(F)F)cc2-c2ccc(-c3cscn3)cc2)cc1F [Example 99, 4-{4-[1-[3-Fluoro-4-(methylsulfonyl)phenyl]-3-(trifluoromethyl)-1H-pyrazol-5-yl]phenyl}-1,3-thiazole] | 125 to 127 |
| Cc1onc(-c2ccc(-c3cscn3)cc2)c1-c1ccc(S(C)(=O)=O)c(F)c1 [Example 168, 4-[3-Fluoro-4-(methylsulfonyl)phenyl]-5-methyl-3-[4-(1,3-thiazol-4-yl)phenyl]isoxazole] | 130 |
| CS(=O)(=O)c1ccc(-n2nc(C(F)(F)F)cc2-c2ccc(-c3cscn3)c(Cl)c2)cc1 (as salt: hydrochloride) [Example 119, 4-{2-Chloro-4-[1-[4-(methylsulfonyl)phenyl]-3-(trifluoromethyl)-1H-pyrazol-5-yl]phenyl}-1,3-thiazole] | 128 to 130 |
| CS(=O)(=O)c1ccc(-n2nc(C(F)(F)F)cc2-c2ccc(-c3cnco3)cc2)cc1 (as salt: hydrochloride) [Example 76, 1-[4-(Methylsulfonyl)phenyl]-5-[4-(5-oxazolyl)phenyl]-3-(trifluoromethyl)-1H-pyrazole] | 178 to 180 |
| Cc1nc(-c2ccc(-c3cscn3)c(C)c2)c(-c2ccc(S(C)(=O)=O)c(F)c2)o1 [Example 173, 5-[3-Fluoro-4-(methylsulfonyl)phenyl]-2-methyl-4-[3-methyl-4-(1,3-thiazol-4-yl)phenyl]-1,3-oxazole] | 177 to 178 |
| NS(=O)(=O)c1ccc(-n2nc(C(F)(F)F)cc2-c2ccc(-c3ccco3)cc2)cc1F (as salt: hydrochloride) [Example 137, 2-Fluoro-4-[5-[4-(2-furyl)phenyl]-3-(trifluoromethyl)-1H-pyrazol-1-yl]benzenesulfonamide] | 151 |
| NS(=O)(=O)c1ccc(-n2nc(C(F)(F)F)cc2-c2ccc(-c3cscn3)cc2)cc1 (as salt: hydrochloride) [Example 100, 4-[5-[4-(1,3-Thiazol-4-yl)phenyl]-3-(trifluoromethyl)-1H-pyrazol-1-yl]benzenesulfonamide] | 188 to 190 |
| CS(=O)(=O)c1ccc(-n2nc(C(F)(F)F)cc2-c2ccc(-c3cscn3)c(Cl)c2)cc1F [Example 109, 4-{2-Chloro-4-[1-[3-fluoro-4-(methylsulfonyl)phenyl]-3-(trifluoromethyl)-1H-pyrazol-5-yl]phenyl}-1,3-thiazole] | 108 to 110 |
| Cc1cc(C2=C(c3ccc(S(C)(=O)=O)cc3)C(C)(C)OC2=O)ccc1-c1cscn1 [Example 184, 5,5-Dimethyl-3-[3-methyl-4-(1,3-thiazol-4-yl)phenyl]-4-[4-(methylsulfonyl)phenyl]-2(5H)-furanone] | 180.3 |
| Cc1cc(-c2ccc(-c3ccco3)cc2)n(-c2ccc(S(C)(=O)=O)cc2)c1 [Example 59, 2-[4-(2-Furyl)phenyl]-4-methyl-1-[4-(methylsulfonyl)phenyl]-1H-pyrrole] | 193 to 194 |
